Measured values taken from article PMC10951066, “The self-reactive FVIII T cell repertoire in healthy individuals relies on a short set of epitopes and public clonotypes” (Frontiers in Immunology, 2024).

Legend:
HLA-DRB1*1101 = HLA-DRB1*1101 (Homo sapiens, UniProt P01903+P01911, A100R/A169T/A87E/I96F/K41T/L162R/M171V/P40S/Q125H/Q178H/Q39Y/Q99D/R42S/S66Y/T262R/V115G/W38E); experiment: Peptide-MHCII competition binding assay; conditions: competition ELISA, pH 5.9, peptide 90.000nM – 0.9nM, HLA-DRB1 30 nM, biotinylated peptide 15nM, duplicate wells; ratios below 10 = good binding; reference peptide […]
Procedure: (§1) Quantitative peptide-MHCII competition binding assays were carried out to determine binding avidities of the 18 20-mer FVIII peptides to 6 HLA-DRB1. Data are presented as ratio between reference peptide IC50/FVIII-peptide IC50 tested. Briefly, non-biotinylated FVIII peptides have been diluted at a concentration of 20 mM in DMSO. 10-µl aliquots of serially diluted (90.000nM – 0.9nM in n-Octyl b-D-Glucopyranoside, 2.5 mg/ml in 1x phosphate buffer, pH 5.9) of non-biotinylated FVIII peptides, were added to duplicate wells of 96-well polypropylene plates. Serially diluted non-FVIII reference peptides known to bind to the specific HLA-DRB1 were added to separate wells as positive controls. Next, the biotinylated peptide at a concentration of 2mM was use to prepare 1000-fold pre-dilution to reach a final concentration of 15nM. The HLA-DRB1 proteins were diluted to 30 nM in n-Octyl β-D-Glucopyranoside, 2.5 mg/ml in 1x phosphate buffer, pH 5.9. […] SA-HRP (diluted 5000x in 1xPBS 0.1% Tween20) was added to each well. The plates were covered and incubated at room temperature for 60 min […] and washed. TMB (100 μl/well) was then added, and the plates were incubated at room temperature for 15-30 min. ELISA stopping solution (0.5M H2SO4) was added and then read on a FLUOstar OPTIMA fluorometer. Sigmoidal binding curves were simulated and IC50 values calculated for the FVIII peptides, based on their competition with the reference peptides for each HLA-DRB1. Data were reported as the ratio between the values of the tested peptide and of the reference peptide. Ratios below 10 correspond to good biding affinity.

HLA-DRB1*0301 = HLA-DRB1*0301 (Homo sapiens, UniProt P01903+P01911, A100K/A102G/A103R/A169T/F55Y/I96L/K41T/L162R/M171V/P40S/Q125H/Q178H/Q39Y/R42S/S66N/T106N/T262R/W38E/Y61H); experiment: Peptide-MHCII competition binding assay; conditions: competition ELISA, pH 5.9, peptide 90.000nM – 0.9nM, HLA-DRB1 30 nM, biotinylated peptide 15nM, duplicate wells; ratios below 10 = good binding; reference peptide SFLLTDLINRRTPRVDGQ
Procedure: as §1

HLA-DRB1*0101 = HLA-DRB1*0101 (Homo sapiens, UniProt P01903+P01911, A100R/D57E/F55L/F60I/F76Y/I96L/L162R/M171V/P40L/Q125E/R42F/V115G/Y59C); experiment: Peptide-MHCII competition binding assay; conditions: competition ELISA, pH 5.9, peptide 90.000nM – 0.9nM, HLA-DRB1 30 nM, biotinylated peptide 15nM, duplicate wells; ratios below 10 = good binding; reference peptide […]
Procedure: as §1

HLA-DRB1*0401 = HLA-DRB1*0401 (Homo sapiens, UniProt P01903+P01911, A100K/A169T/F76Y/I96L/K127E/L162R/M171V/N62H/P40V/Q125Y/R42H/S133A/S149N/S66Y/V115G/V209L/W38E); experiment: Peptide-MHCII competition binding assay; conditions: competition ELISA, pH 5.9, peptide 90.000nM – 0.9nM, HLA-DRB1 30 nM, biotinylated peptide 15nM, duplicate wells; ratios below 10 = good binding; reference peptide […]
Procedure: as §1

HLA-DRB1*0701 = HLA-DRB1*0701 (Homo sapiens, UniProt P01903+P01911, A100R/A102G/A103Q/D57E/D86V/E43K/F76Y/K127E/L162R/M171V/P40G/Q125H/Q99D/R33Q/R42Y/R54Q/S133A/S66F/T210M/V115G/Y107V/Y59L/Y89S); experiment: Peptide-MHCII competition binding assay; conditions: competition ELISA, pH 5.9, peptide 90.000nM – 0.9nM, HLA-DRB1 30 nM, biotinylated peptide 15nM, duplicate wells; ratios below 10 = good binding; reference peptide PVDLHAFLSQAVFS
Procedure: as §1

[1] = system: CD4 T cells from healthy donors; experiment: Large-scale CD4 T cell epitope mapping by IFN-γ ELISPOT (16 donors); assay type: cell-based, human; conditions: for Donor coverage ( %): of 16 donors; for responding donors: of 16 healthy donors, individual peptide 10 µg/ml; for response intensity ( %): percentage of 872 FVIII-specific T cell lines
Description: PBMCs were purified from the whole blood of anonymous healthy donors, who gave informed consent (Etablissement Français du Sang, Rungis, France), using Ficoll-Paque®. Monocyte-derived dendritic cells (DCs) were produced from cells isolated using Percoll gradient by 5 days of culture in AIM-V medium (Invitrogen, Villebon-sur-Yvette, France) supplemented with 1,000 U/ml recombinant human (rh) IL-4 and rhGM-CSF (both from R&D Systems, Lille, France). Mature DCs were produced by two supplementary days of culture in the presence of LPS (1 µg/ml) and R848 (10µg/ml). CD4 T cells were isolated from autologous PBMCs by positive selection using magnetic labeling with anti-CD4 mAbs conjugated to magnetic microbeads followed by magnetic cell sorting, as recommended by the manufacturer (Miltenyi Biotec, Bergisch Gladbach, Germany). Immature DCs were loaded overnight at 37 °C with either 0.2 µM of rFVIII, 0.2 µM of ovalbumin, or 0.25 µM of KLH in 96-well U-bottom plates, while mature DCs were used for FVIII peptides (10 ug/ml). CD4 T cell lines were generated in vitro in IMDM (Invitrogen) supplemented with 10% human serum, 0.24 mM glutamine, 0.55 mM asparagine, 1.5 mM arginine (all amino acids from Sigma-Aldrich), 50 U/mL penicillin/50 μg/mL of streptomycin (Invitrogen), 20 IU/mL human IL-2, and 17 IU/ml human IL-7 (premium-grade; Miltenyi Biotec) by three once-per-week rounds of stimulation of CD4 T cells (200,000 per well) with autologous DCs (20,000 per well). 10,000 lymphocytes were collected at day 19 from each T cell line (expanded T cells contained in one well) and their specificity was assessed by using IFN-g ELISPOT.
The T cell lines and APCs were plated at equal number for both stimulated and unstimulated control conditions. […] The spot number was determined by using the ELISPOT Reader System (Autoimmun Diagnostika, Ebinger, Germany). HLA restriction was assessed using monoclonal antibodies (10 μg/ml) specific to HLA-DP (B7/21), HLA-DQ (SPVL3), or HLA-DR (L243).
Based on the T cell epitope prediction software NetMHCpan4.0 ([23]), we selected 63 20-mer peptides that are predicted for their ability to bind promiscuously, with a percentile score below 10%, at least four HLA class II molecules from a selection of 15 preponderant HLA-DR alleles in our panel (as shown in ST1). […] A total of 16 healthy donors with unrelated HLA typing (ST2) were used as sources of T cells to identify FVIII-specific CD4 T cell epitopes. Specific T cell lines were generated by in vitro T cell culture using FVIII and KLH. The peptide specificity of the T cell lines raised against FVIII was assessed by two independent IFN-γ ELISPOT using peptide pools and individual peptides. […] Furthermore, four independent healthy donors were used as sources of T cells to characterize the HLA restriction and to assess the reactivity of T cell lines generated with the 18 peptides toward rFVIII. T cell lines were amplified in vitro for 28 days through stimulation with the pool of 18 peptides and then tested through IFN-γ ELISPOT.

HLA-DRB1*1501 = HLA-DRB1*1501 (Homo sapiens, UniProt P01903+P01911); experiment: Peptide-MHCII competition binding assay; conditions: competition ELISA, pH 5.9, peptide 90.000nM – 0.9nM, HLA-DRB1 30 nM, biotinylated peptide 15nM, duplicate wells; ratios below 10 = good binding; reference peptide ENPVVHFFKNIVTPR
Procedure: as §1

| Sequence | Ratio IC50 DRB1*1101 (HLA-DRB1*1101) | Ratio IC50 DRB1*0301 (HLA-DRB1*0301) | Ratio IC50 DRB1*0101 (HLA-DRB1*0101) | Ratio IC50 DRB1*0401 (HLA-DRB1*0401) | Ratio IC50 DRB1*0701 (HLA-DRB1*0701) | nb positive T cell lines ([1]; across all 16 donors) | cumulative donor coverage (%) ([1]; cumulative over peptides ranked by donor coverage) | Donor coverage ( %) [1] [%] | responding donors [1] | response intensity ( %) [1] | Ratio IC50 DRB1*1501 (HLA-DRB1*1501) |
| --- | --- | --- | --- | --- | --- | --- | --- | --- | --- | --- | --- |
| GHTFLVRNHRQASLEISPIT [P292-311, 20-mer FVIII peptide, A1 domain] | 0.05 | 72 | 34 | 22.5 | 1 | 26 | 81 | 75 | 12 | 2,98% | – |
| TQGVKSLLTSMYVKEFLISS [P2264-2283, 20-mer FVIII peptide, C2 domain] | 0.05 | 17 | 6242 | 5.5 | 0.05 | – | – | 50 | 8 | 1,72% | 480 |
